Values of other authors, collected in patent publication US20110091452A1, “4,5-Dihydromacbecin Derivatives and Their Use in the Treatment of Cancer or B-Cell Malignancies” (priority 2006, published 2011).

Key:
Hsp90 = Hsp90 (Homo sapiens, UniProt P07900)
[1] = target: terminal deoxynucleotidyl transferase (Homo sapiens, UniProt P04053)
bacteria and fungi = details: in vitro

Chain of terminal deoxynucleotidyl transferase (P04053 whole entry, species assumed): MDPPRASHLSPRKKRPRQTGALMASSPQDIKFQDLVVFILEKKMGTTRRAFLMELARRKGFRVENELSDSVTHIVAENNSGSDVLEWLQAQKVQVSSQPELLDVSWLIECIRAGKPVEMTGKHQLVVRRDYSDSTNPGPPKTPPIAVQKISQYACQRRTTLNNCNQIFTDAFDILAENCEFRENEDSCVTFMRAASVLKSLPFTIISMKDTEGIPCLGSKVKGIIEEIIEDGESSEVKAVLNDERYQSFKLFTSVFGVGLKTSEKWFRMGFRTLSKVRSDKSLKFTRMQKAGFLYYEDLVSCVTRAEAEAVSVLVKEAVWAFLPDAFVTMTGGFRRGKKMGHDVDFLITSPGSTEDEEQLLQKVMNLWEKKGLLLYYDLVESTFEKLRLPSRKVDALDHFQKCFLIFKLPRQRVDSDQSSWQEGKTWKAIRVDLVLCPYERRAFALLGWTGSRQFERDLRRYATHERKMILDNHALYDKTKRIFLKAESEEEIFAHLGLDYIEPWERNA

CO[C@H]1C[C@H](C)Cc2cc(O)cc(c2)NC(=O)/C=C/CC[C@H](OC)[C@@H](OC(N)=O)/C(C)=C/[C@H](C)[C@H]1O [KOSN1559]
binding affinity to Hsp90, greater than 17-AAG (Hsp90; relative to 17-AAG): 8 fold
binding affinity to Hsp90, greater than geldanamycin (Hsp90; relative to geldanamycin): 4 fold

CO[C@H]1[C@@H](OC)C[C@H](C)[C@@H](OC)C2=CC(=O)C=C(NC(=O)/C(C)=C/C=C\[C@H](C)[C@@H](OC(N)=O)/C(C)=C/[C@@H]1C)C2=O [macbecin]
inhibition of reverse transcriptase activity (Reverse transcriptase): not inhibited
inhibition of terminal deoxynucleotidyl transferase activity [1]: not inhibited

COC1=C2C[C@@H](C)C[C@H](OC)[C@H](O)[C@@H](C)/C=C(\C)[C@H](OC(N)=O)[C@@H](OC)/C=C\C=C(/C)C(=O)NC(=CC1=O)C2=O [geldanamycin]
activity in vitro against protozoa (protozoa): strong activity
activity against bacteria and fungi (bacteria and fungi): weak activity
